Results: paper PMC4229146, “An Odorant-Binding Protein Is Abundantly Expressed in the Nose and in the Seminal Fluid of the Rabbit” (PLoS ONE, 2014)

Tests used:
rabOBP3 [1] = molecular target: T1, rabOBP3; experiment: competitive displacement of fluorescent probe 1-NPN; format: binding, Oryctolagus cuniculus
T1 construct: native mature protein (161 amino acids) purified from rabbit seminal fluid, delipidated with dichloromethane

rabOBP3 [2] = molecular target: T1, rabOBP3; experiment: fluorescent probe titration (direct fluorescence binding); parameters: species or system Oryctolagus cuniculus

SMILES	Kd (rabOBP3 [1])	Kd (rabOBP3 [2])
CCCCCC/C=C/C=O [2-nonenal]	7.8 µM	–
c1ccc(Nc2cccc3ccccc23)cc1 [N-phenyl-1-naphthylamine]	–	3.8 µM
CC(C)=CCC/C(C)=C/CO [geraniol]	11.2 µM	–
O=c1c(O)c(-c2ccc(O)c(O)c2)oc2cc(O)cc(O)c12 [quercetin]	2.2 µM	–
